EP3782997A1, “FUSED PYRIMIDINE COMPOUNDS AND PHARMACEUTICAL COMPOSITIONS THEREOF FOR THE TREATMENT OF FIBROTIC DISEASES” (Galapagos N.V., priority 2019, dated 2021)

biological target: hENPP2 (Homo sapiens, UniProt Q13822); experiment: Human ENPP2 (hENPP2) biochemical assay using LPC as substrate; conditions: 150 µM LPC (palmitoyl 16:0), 37°C for 30 min
Procedure, shortened: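 Enzyme at 1 or 3 µg/mL final in Tris-HCl pH 8.5, NaCl, KCl, CaCl2, fatty-acid-free BSA; reaction started with 150 µM LPC 16:0 (as added), 30 min at 37°C. Released choline developed with choline oxidase/peroxidase/TOOS/4-aminoantipyrine plus EGTA stop, read at 555 nm after 30 min; 1/3 dilutions from 50 µM give IC50.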

SMILES	IC50
Cc1cc(C)cc(Nc2ncc3c(n2)CN(C2CCN(C(=O)c4ccc5[nH]c(=S)oc5c4)CC2)C3)c1 [compound 61, [4-[2-(3,5-dimethylanilino)-5,7-dihydropyrrolo[3,4-d]pyrimidin-6-yl]-1-piperidyl]-(2-thioxo-3H-1,3-benzoxazol-6-yl)methanone]	0.01 to 100 nM
Cc1cc(C)cc(Nc2ncc3c(n2)CN(C2CC4CC2CN4C(=O)c2ccc4[nH]c(=O)oc4c2)C3)c1 (centres unmarked) [compound 64, 6-[5-[2-(3,5-dimethylanilino)-5,7-dihydropyrrolo[3,4-d]pyrimidin-6-yl]-2-azabicyclo[2.2.1]heptane-2-carbonyl]-3H-1,3-benzoxazol-2-one]	> 1000 nM
Cc1cc(C)cc(Nc2ncc3c(n2)CN(C2CCN(C(=O)c4cnc5[nH]nnc5c4)CC2C)C3)c1 (centres unmarked) [compound 65, [4-[2-(3,5-dimethylanilino)-5,7-dihydropyrrolo[3,4-d]pyrimidin-6-yl]-3-methyl-1-piperidyl]-(3H-triazolo[4,5-b]pyridin-6-yl)methanone]	100 to 500 nM
Cc1cc(C)cc(Nc2ncc3c(n2)CN(C2CCN(C(=O)c4ccc5[nH]c(=O)sc5c4)CC2)C3)c1 [compound 69, 6-[4-[2-(3,5-dimethylanilino)-5,7-dihydropyrrolo[3,4-d]pyrimidin-6-yl]piperidine-1-carbonyl]-3H-1,3-benzothiazol-2-one]	0.01 to 100 nM
Cc1cc(C)cc(Nc2ncc3c(n2)CN(C2CCN(C(=O)c4ccc(NS(C)(=O)=O)cc4)CC2)C3)c1 [compound 72, N-[4-[4-[2-(3,5-dimethylanilino)-5,7-dihydropyrrolo[3,4-d]pyrimidin-6-yl]piperidine-1-carbonyl]phenyl]methanesulfonamide]	> 1000 nM
Cc1cc(C)cc(Nc2ncc3c(n2)CN(C2[C@@H]4C[C@H]2CN(C(=O)c2ccc5[nH]nnc5c2)C4)C3)c1 (stereo partly drawn) [compound 78, 1H-benzotriazol-5-yl-[(1R,5S)-6-[2-(3,5-dimethylanilino)-5,7-dihydropyrrolo[3,4-d]pyrimidin-6-yl]-3-azabicyclo[3.1.1]heptan-3-yl]methanone]	0.01 to 100 nM
Cc1cc(C)cc(Nc2ncc3c(n2)CN(C2CCN(C(=O)c4cc5[nH]nnc5cc4F)CC2)C3)c1 [compound 79, [4-[2-(3,5-dimethylanilino)-5,7-dihydropyrrolo[3,4-d]pyrimidin-6-yl]-1-piperidyl]-(6-fluoro-3H-benzotriazol-5-yl)methanone]	0.01 to 100 nM
Cc1cc(C)cc(Nc2ncc3c(n2)CN(C2CN(C(=O)c4cc5nn[nH]c5cc4F)CC2C)C3)c1 (centres unmarked) [compound 82, [3-[2-(3,5-dimethylanilino)-5,7-dihydropyrrolo[3,4-d]pyrimidin-6-yl]-4-methyl-pyrrolidin-1-yl]-(6-fluoro-1H-benzotriazol-5-yl)methanone]	100 to 500 nM
COc1cc2[nH]nnc2cc1C(=O)N1CC(C)C(N2Cc3cnc(Nc4cc(C)cc(C)c4)nc3C2)C1 (centres unmarked) [compound 83, [3-[2-(3,5-dimethylanilino)-5,7-dihydropyrrolo[3,4-d]pyrimidin-6-yl] -4-methyl-pyrrolidin-1-yl]-(6-methoxy-1H-benzotriazol-5-yl)methanone]	100 to 500 nM
COc1cc2[nH]nnc2cc1C(=O)N1CC(C)C(N2CCc3nc(Nc4cc(C)cc(C)c4)ncc3C2)C1 (centres unmarked) [compound 88, [3-[2-(3,5-dimethylanilino)-7,8-dihydro-5H-pyrido[4,3-d]pyrimidin-6-yl]-4-methyl-pyrrolidin-1-yl]-(6-methoxy-1H-benzotriazol-5-yl)methanone]	0.01 to 100 nM
Cc1cc(C)cc(Nc2ncc3c(n2)CN([C@@H]2CCN(C(=O)c4ccc5[nH]nnc5c4)[C@@H](C)C2)C3)c1 [compound 93, 1H-benzotriazol-5-yl-[(2S,4R)-4-[2-(3,5-dimethylanilino)-5,7-dihydropyrrolo[3,4-d]pyrimidin-6-yl]-2-methyl-1-piperidyl]methanone]	0.01 to 100 nM
COc1cc2[nH]nnc2cc1C(=O)N1CC[C@@H](N2Cc3cnc(Nc4cc(C)cc(C)c4)nc3C2)C[C@H]1C [compound 105, [(2R,4R)-4-[2-(3,5-dimethylanilino)-5,7-dihydropyrrolo[3,4-d]pyrimidin-6-yl]-2-methyl-1-piperidyl]-(6-methoxy-1H-benzotriazol-5-yl)methanone]	0.01 to 100 nM
COc1cc2[nH]nnc2cc1C(=O)N1CCC(N2Cc3cnc(Nc4cc(C)cc(C)c4)nc3C2)CC1 [compound 106, [4-[2-(3,5-dimethylanilino)-5,7-dihydropyrrolo[3,4-d]pyrimidin-6-yl]-1-piperidyl]-(6-methoxy-1H-benzotriazol-5-yl)methanone]	0.01 to 100 nM

Further lines, results first:

IC50	SMILES
0.01 to 100 nM	Cc1cc(C)cc(Nc2ncc3c(n2)CN(C2CN(C(=O)c4ccc5[nH]c(=S)oc5c4)C2)C3)c1 [compound 62, [3-[2-(3,5-dimethylanilino)-5,7-dihydropyrrolo[3,4-d]pyrimidin-6-yl]azetidin-1-yl]-(2-thioxo-3H-1,3-benzoxazol-6-yl)methanone]
> 1000 nM	Cc1cc(C)cc(Nc2ncc3c(n2)CN(C2CC4CC2CN4C(=O)c2ccc4[nH]nnc4c2)C3)c1 (centres unmarked) [compound 63, 1H-benzotriazol-5-yl-[5-[2-(3,5-dimethylanilino)-5,7-dihydropyrrolo[3,4-d]pyrimidin-6-yl]-2-azabicyclo[2.2.1]heptan-2-yl]methanone]
> 1000 nM	Cc1cc(C)cc(Nc2ncc3c(n2)CN(C2CC(C)N(C(=O)c4ccc5[nH]nnc5c4)C(C)C2)C3)c1 (centres unmarked) [compound 68, 1H-benzotriazol-5-yl-[4-[2-(3,5-dimethylanilino)-5,7-dihydropyrrolo[3,4-d]pyrimidin-6-yl]-2,6-dimethyl-1-piperidyl]methanone]
0.01 to 100 nM	Cc1cc(C)cc(Nc2ncc3c(n2)CN(C2CN(C(=O)c4ccc5[nH]c(=O)sc5c4)C2)C3)c1 [compound 70, 6-[3-[2-(3,5-dimethylanilino)-5,7-dihydropyrrolo[3,4-d]pyrimidin-6-yl]azetidine-1-carbonyl]-3H-1,3-benzothiazol-2-one]
0.01 to 100 nM	Cc1cc(C)cc(Nc2ncc3c(n2)CN([C@@H]2CCN(C(=O)c4ccc5[nH]nnc5c4)[C@H](C)C2)C3)c1 [compound 73, 1H-benzotriazol-5-yl-[(2R,4R)-4-[2-(3,5-dimethylanilino)-5,7-dihydropyrrolo[3,4-d]pyrimidin-6-yl]-2-methyl-1-piperidyl]methanone]
0.01 to 100 nM	Cc1cc(C)cc(Nc2ncc3c(n2)CN([C@H]2CCN(C(=O)c4ccc5[nH]nnc5c4)[C@@H](C)C2)C3)c1 [compound 74, 1H-benzotriazol-5-yl-[(2S,4S)-4-[2-(3,5-dimethylanilino)-5,7-dihydropyrrolo[3,4-d]pyrimidin-6-yl]-2-methyl-1-piperidyl]methanone]
> 1000 nM	Cc1cc(C)cc(Nc2ncc3c(n2)CCCN(C2CCN(C(=O)c4ccc5nn[nH]c5c4)CC2)C3)c1 [compound 75, 3H-benzotriazol-5-yl-[4-[2-(3,5-dimethylanilino)-5,7,8,9-tetrahydropyrimido[5,4-c]azepin-6-yl]-1-piperidyl]methanone]
100 to 500 nM	Cc1cc(C)cc(Nc2ncc3c(n2)CN(C2CN(C(=O)c4ccc5nn[nH]c5c4)CC2C)C3)c1 (centres unmarked) [compound 77, 3H-benzotriazol-5-yl-[3-[2-(3,5-dimethylanilino)-5,7-dihydropyrrolo[3,4-d]pyrimidin-6-yl]-4-methyl-pyrrolidin-1-yl]methanone]
0.01 to 100 nM	Cc1cc(C)cc(Nc2ncc3c(n2)CN(C2CN(C(=O)c4cc5[nH]nnc5cc4F)C2)C3)c1 [compound 80, [3-[2-(3,5-dimethylanilino)-5,7-dihydropyrrolo[3,4-d]pyrimidin-6-yl]azetidin-1-yl]-(6-fluoro-3H-benzotriazol-5-yl)methanone]
0.01 to 100 nM	COc1cc2[nH]nnc2cc1C(=O)N1CC(N2Cc3cnc(Nc4cc(C)cc(C)c4)nc3C2)C1 [compound 81, [3-[2-(3,5-dimethylanilino)-5,7-dihydropyrrolo[3,4-d]pyrimidin-6-yl]azetidin-1-yl]-(6-methoxy-1H-benzotriazol-5-yl)methanone]
100 to 500 nM	Cc1cc(C)cc(Nc2ncc3c(n2)CN(C2=C(C#N)CN(C(=O)c4ccc5nn[nH]c5c4)C2)C3)c1 [compound 85, 1-(3H-benzotriazole-5-carbonyl)-4-[2-(3,5-dimethylanilino)-5,7-dihydropyrrolo[3,4-d]pyrimidin-6-yl]-2,5-dihydropyrrole-3-carbonitrile]
0.01 to 100 nM	Cc1cc(C)cc(Nc2ncc3c(n2)CCN(C2CN(C(=O)c4ccc5nn[nH]c5c4)CC2C)C3)c1 (centres unmarked) [compound 87, 3H -benzotriazol-5-yl-[3-[2-(3,5-dimethylanilino)-7,8-dihydro-5H-pyrido[4,3-d]pyrimidin-6-yl] -4-methyl-pyrrolidin-1-yl]methanone]
0.01 to 100 nM	Cc1cc(C)cc(Nc2ncc3c(n2)CN([C@H]2CCN(C(=O)c4ccc5[nH]nnc5c4)[C@H](C)C2)C3)c1 [compound 92, 1H-benzotriazol-5-yl-[(2R,4S)-4-[2-(3,5-dimethylanilino)-5,7-dihydropyrrolo[3,4-d]pyrimidin-6-yl]-2-methyl-1-piperidyl]methanone]
> 1000 nM	Cc1cc(C)cc(Nc2ncc3c(n2)CCCN(C2CN(C(=O)c4ccc5[nH]nnc5c4)C2)C3)c1 [compound 94, 1H-benzotriazol-5-yl-[3-[2-(3,5-dimethylanilino)-5,7,8,9-tetrahydropyrimido[5,4-c]azepin-6-yl]azetidin-1-yl]methanone]
0.01 to 100 nM	Cc1cc(C)cc(Nc2ncc3c(n2)C(C)(C)N(C2CN(C(=O)c4ccc5[nH]nnc5c4)C2)C3)c1 [compound 95, 1H-benzotriazol-5-yl-[3-[2-(3,5-dimethylanilino)-7,7-dimethyl-5H-pyrrolo[3,4-d]pyrimidin-6-yl]azetidin-1-yl]methanone]
100 to 500 nM	Cc1cc(C)cc(Nc2ncc3c(n2)CCN([C@@H]2CCN(C(=O)c4ccc5[nH]nnc5c4)[C@H](C)C2)C3)c1 [compound 98, 1H-benzotriazol-5-yl-[(2R,4R)-4-[2-(3,5-dimethylanilino)-7,8-dihydro-5H-pyrido[4,3-d]pyrimidin-6-yl]-2-methyl-1-piperidyl]methanone]
